The values that follow come from patent US8313729B2, “Integrated photoactive small molecules and uses thereof” (Medibeacon, LLC, priority 2007, dated 2012).

Data set [1] in a line: Fluorescence excitation and emission. In kind it is physicochemical.
A short description of a further data set: UV/vis absorption in PBS. The class given is physicochemical. The settings on record: 100 μM in PBS.

In the case of `N=C(N)c1ccc(CNC(=O)c2nc(N)c(C(=O)NCc3ccc(C(=N)N)cc3)nc2N)cc1` [Example 1, 3,6-diamino-N2,N5-bis(4-carbamimidoylbenzyl)pyrazine-2,5-dicarboxamide], in data set [1] (100 nM), the “Fluorescence λem” value is 554 nm and the “Fluorescence λex” value is 428 nm. For the same molecule, the “UV/vis λabs” value in “UV/vis absorption in PBS” was 437 nm.
With `Nc1nc(C(=O)NCC(O)CO)c(N)nc1C(=O)NCC(O)CO` (stereo not drawn) [Example 3, 3,6-diamino-N^2,N^5-bis(2,3-dihydroxypropyl)pyrazine-2,5-dicarboxamide], in data set [1] (concentration not given), the “Fluorescence λem” value came to 559 nm and the “Fluorescence λex” value came out at 449 nm. Besides, in the data set “UV/vis absorption in PBS”, the “UV/vis λabs” value is listed as 434 nm.
Consider `Nc1nc(C(=O)N[C@@H](CO)C(=O)O)c(N)nc1C(=O)N[C@@H](CO)C(=O)O` [Example 4, 3,6-Diamino-N^2,N^5-bis(serine)-pyrazine-2,5-dicarboxamide], for which, in data set [1] (concentration not given), the “Fluorescence λem” value was 558 nm and the “Fluorescence λex” value is 432 nm. The “UV/vis λabs” value in the data set “UV/vis absorption in PBS” was determined as 432 nm.
